Source: patent publication US20210255193A1, “LYSINE REACTIVE PROBES AND USES THEREOF” (The Scripps Research Institute, priority 2017, published 2021)

Experiments:
[1] = target: T1, KIAA1967 DBIRD complex subunit KIAA1967 (Homo sapiens, UniProt Q8N163); test: competitive isoTOP-ABPP; assay type: binding; settings: 50 uM, in vitro; for R value (DMSO/fragment) for probe 1 labeling / isoTOP-ABPP reactivity ratio at lysine Q8N163_K97 / isoTOP-ABPP reactivity ratio at lysine Q8N163_K112: 231 sol; for isoTOP-ABPP ratio (R) at liganded lysine Q8N163_K97 / isoTOP-ABPP ratio (R) at liganded lysine Q8N163_K112: sol, 231
T1 construct: isoTOP-ABPP experiments performed in cell lysates (in vitro); endogenous in cells; host or cells: soluble proteome of human cancer cell lines (MDA-MB-231; Ramos and Jurkat also prepared)
How it was run: (§1)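 Readout: isotopic light/heavy MS1 peak-area ratio (R, DMSO heavy over compound light), median across peptides sharing a modified lysine. Lysate received fragment (activated esters 50 μM, guanidinylating agents 100 μM final) or DMSO, then 0.1 mM STP-alkyne probe for 1 h at ambient temperature.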

[2] = target: T2, PFKM 6-phosphofructokinase, muscle type (Homo sapiens, UniProt P08237); test: competitive isoTOP-ABPP; assay type: binding; settings: 50 uM, in vitro; for R value (DMSO/fragment) for probe 1 labeling: P08237_K678; for R value (DMSO/fragment) for probe 1 labeling / isoTOP-ABPP reactivity ratio at lysine P08237_K678: 231 sol; for isoTOP-ABPP ratio (R) at liganded lysine P08237_K678: sol, 231
T2 construct: isoTOP-ABPP experiments performed in cell lysates (in vitro); endogenous in cells; host or cells: MDA-MB-231 soluble lysate
T2 sequence (P08237 1-780): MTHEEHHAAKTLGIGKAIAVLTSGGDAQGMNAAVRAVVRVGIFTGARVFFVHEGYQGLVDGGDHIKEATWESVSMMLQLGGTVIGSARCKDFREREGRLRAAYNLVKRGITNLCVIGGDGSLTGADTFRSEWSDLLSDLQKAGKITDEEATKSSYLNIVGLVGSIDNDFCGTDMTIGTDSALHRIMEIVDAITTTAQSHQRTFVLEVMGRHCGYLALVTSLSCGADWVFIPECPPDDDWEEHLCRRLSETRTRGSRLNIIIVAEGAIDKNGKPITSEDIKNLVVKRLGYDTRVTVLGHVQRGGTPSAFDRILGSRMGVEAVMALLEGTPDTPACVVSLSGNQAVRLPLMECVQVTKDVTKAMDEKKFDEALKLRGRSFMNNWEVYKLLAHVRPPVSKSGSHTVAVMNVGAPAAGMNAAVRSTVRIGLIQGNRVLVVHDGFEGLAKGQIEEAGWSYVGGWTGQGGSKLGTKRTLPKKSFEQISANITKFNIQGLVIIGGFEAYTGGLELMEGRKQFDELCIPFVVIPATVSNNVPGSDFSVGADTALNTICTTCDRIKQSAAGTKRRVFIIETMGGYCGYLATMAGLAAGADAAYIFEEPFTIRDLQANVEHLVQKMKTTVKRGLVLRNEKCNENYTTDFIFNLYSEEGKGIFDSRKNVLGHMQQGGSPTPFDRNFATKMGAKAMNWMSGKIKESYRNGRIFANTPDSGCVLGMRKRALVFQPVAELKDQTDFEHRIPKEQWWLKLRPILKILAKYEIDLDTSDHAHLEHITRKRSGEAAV
How it was run: as §1

T1 sequence (Q8N163 whole entry, the tested form may be a part, one chain of several): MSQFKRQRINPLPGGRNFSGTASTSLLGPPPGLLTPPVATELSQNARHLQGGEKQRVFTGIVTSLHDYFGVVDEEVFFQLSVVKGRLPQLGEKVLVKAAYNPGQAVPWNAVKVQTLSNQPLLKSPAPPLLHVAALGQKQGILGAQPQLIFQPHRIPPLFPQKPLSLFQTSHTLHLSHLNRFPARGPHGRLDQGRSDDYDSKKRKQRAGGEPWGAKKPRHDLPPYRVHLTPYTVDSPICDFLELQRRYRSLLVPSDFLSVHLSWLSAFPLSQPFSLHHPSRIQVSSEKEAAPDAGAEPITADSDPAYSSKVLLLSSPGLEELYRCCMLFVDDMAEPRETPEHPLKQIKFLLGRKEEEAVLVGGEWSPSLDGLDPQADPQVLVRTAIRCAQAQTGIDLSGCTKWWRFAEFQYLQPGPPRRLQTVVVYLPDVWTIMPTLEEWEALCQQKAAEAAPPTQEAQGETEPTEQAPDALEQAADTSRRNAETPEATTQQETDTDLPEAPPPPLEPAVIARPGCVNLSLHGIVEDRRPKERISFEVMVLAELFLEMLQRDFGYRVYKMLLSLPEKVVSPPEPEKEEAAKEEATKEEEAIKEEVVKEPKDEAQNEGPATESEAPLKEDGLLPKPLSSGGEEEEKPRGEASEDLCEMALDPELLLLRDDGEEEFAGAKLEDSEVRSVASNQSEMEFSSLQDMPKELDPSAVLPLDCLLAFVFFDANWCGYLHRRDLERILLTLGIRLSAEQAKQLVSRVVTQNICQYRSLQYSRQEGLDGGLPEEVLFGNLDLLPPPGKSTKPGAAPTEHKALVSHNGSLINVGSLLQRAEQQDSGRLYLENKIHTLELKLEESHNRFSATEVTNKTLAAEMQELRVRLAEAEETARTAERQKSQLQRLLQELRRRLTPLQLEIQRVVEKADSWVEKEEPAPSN

SMILES	isoTOP-ABPP reactivity ratio at lysine Q8N163_K97 [1]	isoTOP-ABPP reactivity ratio at lysine Q8N163_K112 [1]	isoTOP-ABPP reactivity ratio at lysine P08237_K678 [2]	isoTOP-ABPP ratio (R) at liganded lysine Q8N163_K97 [1]	isoTOP-ABPP ratio (R) at liganded lysine P08237_K678 [2]	further results
O=C(CCc1cn(-c2ccccc2)nc1-c1ccccc1)Oc1c(F)c(F)c(F)c(F)c1F [fragment 19, Pentafluorophenyl 3-(1,3-diphenyl-1H-pyrazol-4-yl)propanoate]						R value (DMSO/fragment) for probe 1 labeling ([1]; Q8N163_K97): 0.9; R value (DMSO/fragment) for probe 1 labeling ([1]; Q8N163_K112): 1.2; R value (DMSO/fragment) for probe 1 labeling [2]: 1.0
O=C(Oc1c(F)c(F)c(F)c(F)c1F)C(c1ccccc1)c1ccccc1 [fragment 20, Pentafluorophenyl 2,2-diphenylacetate]						R value (DMSO/fragment) for probe 1 labeling ([1]; Q8N163_K97): 0.9; R value (DMSO/fragment) for probe 1 labeling ([1]; Q8N163_K112): 1.0; R value (DMSO/fragment) for probe 1 labeling [2]: 1.4
O=C(Oc1c(F)c(F)c(F)c(F)c1F)c1cc(C(F)(F)F)cc(C(F)(F)F)c1 [fragment 21, Pentafluorophenyl 3,5-bis(trifluoromethyl)benzoate]						R value (DMSO/fragment) for probe 1 labeling ([1]; Q8N163_K97): 0.7; R value (DMSO/fragment) for probe 1 labeling ([1]; Q8N163_K112): 1.0; R value (DMSO/fragment) for probe 1 labeling [2]: 0.9
Cn1cc(CC(=O)Oc2c(F)c(F)c(F)c(F)c2F)c2ccccc21 [fragment 22, Pentafluorophenyl 2-(1-methyl-1H-indol-3-yl)acetate]						R value (DMSO/fragment) for probe 1 labeling ([1]; Q8N163_K97): 1.0; R value (DMSO/fragment) for probe 1 labeling ([1]; Q8N163_K112): 1.1; R value (DMSO/fragment) for probe 1 labeling [2]: 1.1
COc1cc(CCC(=O)Oc2c(F)c(F)c(F)c(F)c2F)cc(OC)c1OC [fragment 23, Pentafluorophenyl 3-(3,4,5-trimethoxyphenyl)propanoate]						R value (DMSO/fragment) for probe 1 labeling ([1]; Q8N163_K97): 0.8; R value (DMSO/fragment) for probe 1 labeling ([1]; Q8N163_K112): 1.1; R value (DMSO/fragment) for probe 1 labeling [2]: 1.0
O=C(Oc1c(F)c(F)c(F)c(F)c1F)C1CCN(C(=O)OCc2ccccc2)CC1 [fragment 24, 1-Benzyl 4-(pentafluorophenyl) piperidine-1,4-dicarboxylate]	0.9	1.0	1.1			
O=C(Oc1c(F)c(F)c(F)c(F)c1F)c1ccc2ccccc2n1 [fragment 25, Pentafluorophenyl quinoline-2-carboxylate]	0.7	1.1	1.3			
O=C(CCc1coc2cc(F)ccc2c1=O)Oc1c(F)c(F)c(F)c(F)c1F [fragment 26, Pentafluorophenyl 3-(7-fluoro-4-oxo-4H-chromen-3-yl)propanoate]	0.9	1.1	1.4			
O=C(CN1C(=O)c2ccccc2C1=O)Oc1c(F)c(F)c(F)c(F)c1F [fragment 27, Pentafluorophenyl 2-(1,3-dioxoisoindolin-2-yl)acetate]	0.9	1.2	2.6			
CCn1cc(C(=O)Oc2c(F)c(F)c(F)c(F)c2F)c(=O)c2ccc(C)nc21 [fragment 28, Pentafluorophenyl 1-ethyl-7-methyl-4-oxo-1,4-dihydro-1,8-naphthyridine-3-carboxylate]	0.9	1.1	1.3			
O=C(CCc1cn(-c2ccccc2)nc1-c1ccccc1)Oc1ccc([N+](=O)[O-])cc1[N+](=O)[O-] [fragment 29, 2,4-Dinitrophenyl 3-(1,3-diphenyl-1H-pyrazol-4-yl)propanoate]	0.8	1.2	1.8			
O=C(Oc1ccc([N+](=O)[O-])cc1[N+](=O)[O-])C(c1ccccc1)c1ccccc1 [fragment 30, 2,4-Dinitrophenyl 2,2-diphenylacetate]	1.0	1.4	20.0			
O=C(Oc1ccc([N+](=O)[O-])cc1[N+](=O)[O-])c1cc(C(F)(F)F)cc(C(F)(F)F)c1 [fragment 31, 2,4-Dinitrophenyl 3,5-bis(trifluoromethyl)benzoate]	0.9	1.0	1.1			
Cn1cc(CC(=O)Oc2ccc([N+](=O)[O-])cc2[N+](=O)[O-])c2ccccc21 [fragment 32, 2,4-Dinitrophenyl 2-(1-methyl-1H-indol-3-yl)acetate]	1.1	1.2	15.4			
COc1cc(CCC(=O)Oc2ccc([N+](=O)[O-])cc2[N+](=O)[O-])cc(OC)c1OC [fragment 33, 2,4-Dinitrophenyl 3-(3,4,5-trimethoxyphenyl)propanoate]	0.7	0.9	4.0			
O=C(Oc1ccc([N+](=O)[O-])cc1[N+](=O)[O-])C1CCN(C(=O)OCc2ccccc2)CC1 [fragment 34, 1-Benzyl 4-(2,4-dinitrophenyl) piperidine-1,4-dicarboxylate]				1.3	1.1	isoTOP-ABPP ratio (R) at liganded lysine Q8N163_K112 [1]: 1.0
O=C(Oc1ccc([N+](=O)[O-])cc1[N+](=O)[O-])c1ccc2ccccc2n1 [fragment 35, 2,4-Dinitrophenyl quinoline-2-carboxylate]				0.8	1.2	
O=C(CCc1coc2cc(F)ccc2c1=O)Oc1ccc([N+](=O)[O-])cc1[N+](=O)[O-] [fragment 36, 2,4-Dinitrophenyl 3-(7-fluoro-4-oxo-4H-chromen-3-yl)propanoate]				0.9	5.3	isoTOP-ABPP ratio (R) at liganded lysine Q8N163_K112 [1]: 1.1
O=C(Oc1ccc([N+](=O)[O-])cc1[N+](=O)[O-])c1ccc(-c2ccccc2)cc1 [fragment 37, 2,4-Dinitrophenyl [1,1′-biphenyl]-4-carboxylate]				1.0	1.0	isoTOP-ABPP ratio (R) at liganded lysine Q8N163_K112 [1]: 1.1
O=C(CC12CC3CC(CC(C3)C1)C2)Oc1ccc([N+](=O)[O-])cc1[N+](=O)[O-] [fragment 38, 2,4-Dinitrophenyl 2-(adamantan-1-yl)acetate]					1.0	
O=C(Oc1ccc([N+](=O)[O-])cc1[N+](=O)[O-])c1ccc(Oc2ccccc2)cc1 [fragment 39, 2,4-Dinitrophenyl 4-phenoxybenzoate]				0.9	1.0	isoTOP-ABPP ratio (R) at liganded lysine Q8N163_K112 [1]: 1.1
O=C(Oc1ccc([N+](=O)[O-])cc1[N+](=O)[O-])c1ccccc1Nc1cccc(C(F)(F)F)c1 [fragment 40, 2,4-Dinitrophenyl 2-((3-(trifluoromethyl)phenyl)amino)benzoate]				1.0	0.9	isoTOP-ABPP ratio (R) at liganded lysine Q8N163_K112 [1]: 1.5
CC(C)(C)OC(=O)NCCCC(=O)Oc1ccc([N+](=O)[O-])cc1[N+](=O)[O-] [fragment 41, 2,4-Dinitrophenyl 4-((tert-butoxycarbonyl)amino)butanoate]				1.0	2.0	isoTOP-ABPP ratio (R) at liganded lysine Q8N163_K112 [1]: 1.3
